Source: ChEMBL document CHEMBL1130569, “pH Dependence of the rate of DNA alkylation for (+)-duocarmycin SA and (+)-CCBI-TMI” (Bioorg Med Chem Lett, 1997)
Values joined by “and” are separate entries in the source; they are usually repeats but may differ in a detail not shown here. Identical values can stand only once.

Columns and labels:
[1] = Half-life period for acid-catalyzed solvolysis, was determined at pH 3; assay type: ADME
[2] = Compound was evaluated for first-order rate constant for acid-catalyzed solvolysis at pH 7.6; assay type: ADME
[3] = test system: Nucleic Acid; test: Compound was evaluated for relative rate constant for alkylation of the single high affinity site in w794 DNA at pH 7.5.; assay type: nucleic-acid assay
[4] = Half-life period for DNA alkylation, was determined; assay type: ADME
[5] = test system: Nucleic Acid; test: Compound was evaluated for relative rate constant for alkylation of the single high affinity site in w794 DNA at the 6.0 pH points at 25 degrees Centigrade.; assay type: nucleic-acid assay
[6] = test system: Nucleic Acid; test: Compound was evaluated for relative rate constant for alkylation of the single high affinity site in w794 DNA at the 6.6 pH points at 25 degrees Centigrade.; assay type: nucleic-acid assay
[7] = test system: Nucleic Acid; test: Compound was evaluated for relative rate constant for alkylation of the single high affinity site in w794 DNA at the 7.1 pH points at 25 degrees Centigrade.; assay type: nucleic-acid assay
[8] = test system: Nucleic Acid; test: Compound was evaluated for relative rate constant for alkylation of the single high affinity site in w794 DNA at the 7.6 pH points at 25 degrees Centigrade.; assay type: nucleic-acid assay
[9] = test system: Nucleic Acid; test: Compound was evaluated for relative rate constant for alkylation of the single high affinity site in w794 DNA at the 8.1 pH points at 25 degrees Centigrade.; assay type: nucleic-acid assay
[10] = test system: Nucleic Acid; test: Compound was evaluated for pseudo first-order rate constant for alkylation of the single high affinity site in w794 DNA at the 6.1 pH points at 25 degrees Centigrade.; assay type: nucleic-acid assay
[11] = test system: Nucleic Acid; test: Compound was evaluated for pseudo first-order rate constant for alkylation of the single high affinity site in w794 DNA at the 6.8 pH points at 25 degrees Centigrade.; assay type: nucleic-acid assay
[12] = test system: Nucleic Acid; test: Compound was evaluated for pseudo first-order rate constant for alkylation of the single high affinity site in w794 DNA at the 7.6 pH points at 25 degrees Centigrade.; assay type: nucleic-acid assay
[13] = test system: Nucleic Acid; test: Compound was evaluated for pseudo first-order rate constant for alkylation of the single high affinity site in w794 DNA at the 8.0 pH points at 25 degrees Centigrade.; assay type: nucleic-acid assay
[14] = test system: Nucleic Acid; test: Compound was evaluated for relative rate constant for alkylation of the single high affinity site in w794 DNA at the 6.1 pH points at 25 degrees Centigrade.; assay type: nucleic-acid assay
[15] = test system: Nucleic Acid; test: Compound was evaluated for relative rate constant for alkylation of the single high affinity site in w794 DNA at the 6.8 pH points at 25 degrees Centigrade.; assay type: nucleic-acid assay
[16] = test system: Nucleic Acid; test: Compound was evaluated for relative rate constant for alkylation of the single high affinity site in w794 DNA at the 8.0 pH points at 25 degrees Centigrade.; assay type: nucleic-acid assay
[17] = test system: Nucleic Acid; test: Compound was evaluated for relative rate constant for alkylation of the single high affinity site in w794 DNA at 10 mM NaH2PO4-Na2HPO4 buffers.; assay type: nucleic-acid assay
[18] = test system: Nucleic Acid; test: Compound was evaluated for relative rate constant for alkylation of the single high affinity site in w794 DNA at pH 7.5 10 mM NaH2PO4-Na2HPO4, 1 mM EDTA buffers.; assay type: nucleic-acid assay
[19] = test system: Nucleic Acid; test: Compound was evaluated for relative rate constant for alkylation of the single high affinity site in w794 DNA at pH 7.5 using 10 mM Tris buffers.; assay type: nucleic-acid assay
[20] = test system: Nucleic Acid; test: Compound was evaluated for relative rate constant for alkylation of the single high affinity site in w794 DNA at pH 7.5 using 10 mM Tris, 1 mM EDTA buffers; assay type: nucleic-acid assay

## COC(=O)c1cc2c([nH]1)C(=O)C=C1N(C(=O)OC(C)(C)C)C[C@H]3C[C@]123
[1]
  T1/2: 177 h
[2]
  k: 1.08e-06 s⁻¹

## COc1ccc2c(c1)[C@@]13C[C@@H]1CN(C(=O)OC(C)(C)C)C3=CC2=O
[2]
  k: 1.75e-06 s⁻¹

## N#Cc1ccc2c(c1)[C@@]13C[C@@H]1CN(C(=O)c1cc4cc(NC(=O)c5cc6ccccc6[nH]5)ccc4[nH]1)C3=CC2=O
[3]
  Krel: 2.5

## CC(C)(C)OC(=O)N1C[C@H]2C[C@@]23C1=CC(=O)c1ccc(C#N)cc13
[2]
  k: 9.9e-07 s⁻¹

## COc1ccc2c(c1)[C@@]13C[C@@H]1CN(C(=O)c1cc4cc(OC)c(OC)c(OC)c4[nH]1)C3=CC2=O
[3]
  Krel: 1.9

## O=C(Nc1ccc2[nH]c(C(=O)N3C[C@H]4C[C@@]45C3=CC(=O)c3ccccc35)cc2c1)c1cc2ccccc2[nH]1
[3]
  Krel: 1

## COC(=O)c1cc2c([nH]1)C(=O)C=C1N(C(=O)c3cc4cc(OC)c(OC)c(OC)c4[nH]3)C[C@H]3C[C@]123 [DUOCARMYCIN]
[4]
  T1/2: 1.2 years
[2]
  k: 2.7e-11 s⁻¹
[5]
  Krel: 1.89
[6]
  Krel: 1.32
[7]
  Krel: 1.12
[8]
  Krel: 1.05
[9]
  Krel: 1
[10]
  k obs: 0.000283 s⁻¹
[11]
  k obs: 0.000199 s⁻¹
[12]
  k obs: 0.000169 s⁻¹
[13]
  k obs: 0.000158 s⁻¹ and 0.00015 s⁻¹
[3]
  Krel: 0.9

## COc1cc2cc(C(=O)N3C[C@H]4C[C@@]45C3=CC(=O)c3ccccc35)[nH]c2c(OC)c1OC
[3]
  Krel: 1

## COc1ccc2c(c1)[C@@]13C[C@@H]1CN(C(=O)c1cc4cc(NC(=O)c5cc6ccccc6[nH]5)ccc4[nH]1)C3=CC2=O
[3]
  Krel: 1.4

## CC(C)(C)OC(=O)N1C[C@H]2C[C@@]23C1=CC(=O)c1ccccc13
[2]
  k: 1.45e-06 s⁻¹

## COc1cc2cc(C(=O)N3C[C@H]4C[C@@]45C3=CC(=O)c3ccc(C#N)cc35)[nH]c2c(OC)c1OC
[2]
  k: 2.5e-11 s⁻¹
[14]
  Krel: 2.55
[15]
  Krel: 1.5
[8]
  Krel: 1.2
[16]
  Krel: 1
[10]
  k obs: 0.000706 s⁻¹
[11]
  k obs: 0.000417 s⁻¹
[12]
  k obs: 0.000336 s⁻¹
[13]
  k obs: 0.000278 s⁻¹
[17]
  Krel: 1.05
[18]
  Krel: 1
[19]
  Krel: 1.74
[20]
  Krel: 1.51
[3]
  Krel: 2.5
